According to patent US20250340551A1, “SMALL MOLECULE MODULATORS OF STAT6” (Gilead Sciences, Inc., priority 2024, published 2025):

Test system: Eotaxin-3 (CCL26) release in human whole blood stimulated with IL-4
Experiment: Human whole blood eotaxin-3 assay (IL-4 stimulated, Eotaxin-3 release)
Format: cell-based
Settings: Homo sapiens, 48 h
Protocol: This was a human whole blood assay using recombinant human Interleukin 4 to stimulate the blood and measuring the ability of the test compounds to inhibit eotaxin-3 release. The biological activities of the test compounds have been tested in human whole blood stimulated with IL-4 measuring Eotaxin-3 release. The test compounds were added to 384 well clear flat-bottom plate in a 4-fold serial dilution in triplicates using a liquid handler. Human whole blood stabilized in lithium-heparin tubes was added in a volume of 65 μL per well, resulting in a final DMSO concentration of 0.5%. The plate is incubated for 2 h at 37° C. under 5% CO2/95% air. Subsequently, 5 μL of recombinant human IL-4 (R&D Systems, cat #204-ILB) was added to the wells to a final concentration of 400 pM. The plate was incubated for 48 h at 37° C. under 5% CO2/95% air. The plate was spun down for 10 minutes at 500×g and 20 μL supernatant was harvested and transferred to a 384 well v-bottom plate using a liquid handler and stored at −20° C. until further analysis. 10 μL supernatant was used to measure the level of Eotaxin-3 (CCL26) using Human Eotaxin-3 MSD kit from Mesocsale (Cat #K251UEK-4). The assay was performed according to the manufacture instructions.
The data from the human whole blood eotaxin-3 assay is shown below for Examples 1u2, 1x1, 1af26, and 1af36 (where the effect in % is plotted against the test concentration in M on a log-scale).

Row | SMILES | Emax [%]
1 | CN(C)C(=O)c1ccc(C2=CCN(Cc3cc4c(-c5ccc(N)nc5)ccnc4n3C)CC2)nn1 [Example 1z3, 6-(1-((4-(6-aminopyridin-3-yl)-1-methyl-1H-pyrrolo[2,3-b]pyridin-2-yl)methyl)-1,2,3,6-tetrahydropyridin-4-yl)-N,N-dimethylpyridazine-3-carboxamide] | < 20
2 | CNc1ccc(-c2ccnc3c2cc(CN2CC[C@H](c4ccc(C(=O)N(C)C)cc4)C[C@H]2C)n3C)nc1 (single isomer, unassigned) [Example 1o29] | < 20

Same assay, conditions: Homo sapiens, Hec50, 48 h

Row | SMILES | EC50 [nM]
3 | Cc1cc(C(=O)N(C)C)cc(C)c1C1=CCN(Cc2cc3c(-c4ccc(N)nn4)ccnc3n2C)CC1 [Example 1z12, 4-(1-((4-(6-aminopyridazin-3-yl)-1-methyl-1H-pyrrolo[2,3-b]pyridin-2-yl)methyl)-1,2,3,6-tetrahydropyridin-4-yl)-N,N,3,5-tetramethylbenzamide] | 57
4 | CNc1ccc(-c2ccnc3c2cc(CN2CC=C(c4ccc(C(=O)N(C)C)cc4C(F)(F)F)CC2)n3C)nn1 [Example 1p15, N,N-Dimethyl-4-[1-[[1-methyl-4-[6-(methylamino)pyridazin-3-yl]pyrrolo[2,3-b]pyridin-2-yl]methyl]-3,6-dihydro-2H-pyridin-4-yl]-3-(trifluoromethyl)benzamide] | 1530
5 | CNc1ccc(-c2ccnc3c2cc(C(C)N2CC=C(c4c(C)cc(C(=O)N(C)C)cc4F)CC2)n3C)nc1 (centres unmarked) [Example 1z39, 3-fluoro-N,N,5-trimethyl-4-(1-(1-(1-methyl-4-(5-(methylamino)pyridin-2-yl)-1H-pyrrolo[2,3-b]pyridin-2-yl)ethyl)-1,2,3,6-tetrahydropyridin-4-yl)benzamide] | 301
6 | [2H]C([2H])([2H])N(C(=O)c1ccc(C2=CCN([C@@H](C)c3cc4c(-c5ccc(N)c(F)n5)ccnc4n3C)CC2)cc1)C([2H])([2H])[2H] [Example 1af54, (S)-4-(1-(1-(4-(5-Amino-6-fluoropyridin-2-yl)-1-methyl-1H-pyrrolo[2,3-b]pyridin-2-yl)ethyl)-1,2,3,6-tetrahydropyridin-4-yl)-N,N-bis(methyl-d3)benzamide] | 534
7 | [2H]C([2H])([2H])N(C(=O)c1ccc(C2=CCN([C@@H](C)c3cc4c(-c5ncc(N)cc5C)ccnc4n3C)CC2)cc1)C([2H])([2H])[2H] [Example 1af53, (S)-4-(1-(1-(4-(5-Amino-3-methylpyridin-2-yl)-1-methyl-1H-pyrrolo[2,3-b]pyridin-2-yl)ethyl)-1,2,3,6-tetrahydropyridin-4-yl)-N,N-bis(methyl-d3)benzamide] | 765
8 | CN(C)C(=O)c1ccc(C2=CCN(Cc3cc4c(-c5ccc(N)nn5)ccnc4n3C)CC2)nc1 [Example 1af78, 1′-((4-(6-Aminopyridazin-3-yl)-1-methyl-1H-pyrrolo[2,3-b]pyridin-2-yl)methyl)-N,N-dimethyl-1′,2′,3′,6′-tetrahydro-[2,4′-bipyridine]-5-carboxamide] | 851
9 | Cc1cc(C(=O)N(C)C)cc(F)c1C1=CCN([C@@H](C)c2cc3c(-c4ccc(N)nn4)ccnc3n2C)CC1 [Example 1af80, (S)-4-(1-(1-(4-(6-aminopyridazin-3-yl)-1-methyl-1H-pyrrolo[2,3-b]pyridin-2-yl)ethyl)-1,2,3,6-tetrahydropyridin-4-yl)-3-fluoro-N,N,5-trimethylbenzamide] | 11.4
10 | [2H]C([2H])([2H])N(C(=O)c1ccc(C2CCN([C@@H](C)c3cc4c(-c5ccc(N)nc5OC)ccnc4n3C)CC2)cc1)C([2H])([2H])[2H] [Example 1af67, (S)-4-(1-(1-(4-(6-amino-2-methoxypyridin-3-yl)-1-methyl-1H-pyrrolo[2,3-b]pyridin-2-yl)ethyl)piperidin-4-yl)-N,N-bis(methyl-d3)benzamide] | 97
11 | [2H]C([2H])([2H])N(C(=O)c1ccc(C2CCN([C@@H](C)c3cc4c(-c5ccc(NCCO)nc5)ccnc4n3C)CC2)cc1)C([2H])([2H])[2H] [Example 1af69, (S)-4-(1-(1-(4-(6-((2-hydroxyethyl)amino)pyridin-3-yl)-1-methyl-1H-pyrrolo[2,3-b]pyridin-2-yl)ethyl)piperidin-4-yl)-N,N-bis(methyl-d3)benzamide] | 262
